In ChEMBL document CHEMBL1143292, “A small molecule inhibitor selective for a variant ATP-binding site of the chaperonin GroEL” (Bioorg Med Chem Lett, 2009):
Active and inactive are the calls of the source.

Tests used:
[1] = test system: Chaperonin GroEL (Escherichia coli (strain K12)), P0A6F5 [I493C]; assay: Inhibition of Escherichia coli 60 kDa chaperonin groEL I493C mutant
Escherichia coli [2] = assay: (§1) Inhibition of Escherichia coli 60 kDa chaperonin groEL refolding activity assessed as recovered enzyme activity of pig heart malate dehydrogenase at 50 uM
[3] = test system: Chaperonin GroEL (Escherichia coli (strain K12)), P0A6F5 [I493C]; assay: as §1
Escherichia coli [4] = assay: Inhibition of Escherichia coli 60 kDa chaperonin groEL ATPase activity assessed as inorganic phosphate release at 50 uM by Malachite green complex formation assay
Escherichia coli [5] = assay: (§2) Inhibition of Escherichia coli 60 kDa chaperonin groEL refolding activity assessed as recovered enzyme activity of bovine rhodanese at 50 uM
[6] = test system: Chaperonin GroEL (Escherichia coli (strain K12)), P0A6F5 [I493C]; assay: as §2
[7] = test system: Chaperonin GroEL (Escherichia coli (strain K12)), P0A6F5 [I493C]; assay: Inhibition of Escherichia coli 60 kDa chaperonin groEL I493C mutant ATPase activity assessed as inorganic phosphate release at 50 uM by Malachite green complex formation assay

Measured: Activity

Chaperonin GroEL (Escherichia coli (strain K12)), P0A6F5 [I493C], sequence (P0A6F5 whole entry I493C): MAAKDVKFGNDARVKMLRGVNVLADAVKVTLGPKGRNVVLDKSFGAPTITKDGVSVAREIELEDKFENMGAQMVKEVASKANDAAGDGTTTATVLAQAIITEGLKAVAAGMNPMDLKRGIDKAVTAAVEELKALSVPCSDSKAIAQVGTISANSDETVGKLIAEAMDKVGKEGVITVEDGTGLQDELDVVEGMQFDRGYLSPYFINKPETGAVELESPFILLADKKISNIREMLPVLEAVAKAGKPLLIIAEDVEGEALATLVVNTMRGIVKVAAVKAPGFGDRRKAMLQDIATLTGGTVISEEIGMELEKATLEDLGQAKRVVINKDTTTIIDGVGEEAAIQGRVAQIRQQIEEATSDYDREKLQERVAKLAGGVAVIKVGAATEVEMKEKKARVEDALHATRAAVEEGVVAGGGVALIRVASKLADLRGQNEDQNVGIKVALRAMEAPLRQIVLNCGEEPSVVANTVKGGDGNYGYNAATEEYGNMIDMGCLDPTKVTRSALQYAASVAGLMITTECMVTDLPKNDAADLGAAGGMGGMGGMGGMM

CC(C)(C)n1nc(-c2ccc(NC(=O)C3CCCC3)cc2)c2c(N)ncnc21
active: [1] | Escherichia coli [2] | [3] | Escherichia coli [4] | Escherichia coli [5] | [6] | [7]
